Experiments:
[1] = target: T1, PPARγ / GST-RAC3 (amino acids 613-752) (Mus musculus, UniProt P37238); experiment: GST pull-down assay, PPARγ with GST-RAC3; format: binding; conditions: 20 μM AJA
T1 construct: made in house; host or cells: PPARγ1: reticulocyte lysate; GST-RAC3: E. coli BL21, kept on glutathione-Sepharose beads
T1 sequence (P37238 1-475 isoform P37238-2): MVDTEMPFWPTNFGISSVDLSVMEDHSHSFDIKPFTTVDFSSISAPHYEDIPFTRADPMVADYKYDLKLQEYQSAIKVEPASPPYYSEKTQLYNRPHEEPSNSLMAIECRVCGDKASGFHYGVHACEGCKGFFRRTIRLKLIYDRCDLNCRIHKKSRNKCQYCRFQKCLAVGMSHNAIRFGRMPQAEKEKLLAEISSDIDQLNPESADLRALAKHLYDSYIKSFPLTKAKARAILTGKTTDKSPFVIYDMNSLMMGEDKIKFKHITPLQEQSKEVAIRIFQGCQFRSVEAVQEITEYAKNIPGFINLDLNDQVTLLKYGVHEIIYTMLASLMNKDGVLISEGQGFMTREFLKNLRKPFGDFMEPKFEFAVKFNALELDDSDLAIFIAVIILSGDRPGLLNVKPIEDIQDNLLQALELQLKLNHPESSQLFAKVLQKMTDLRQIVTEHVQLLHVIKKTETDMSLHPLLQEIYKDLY
T1 sequence (Q9Y6Q9 613-752 partner limits assumed): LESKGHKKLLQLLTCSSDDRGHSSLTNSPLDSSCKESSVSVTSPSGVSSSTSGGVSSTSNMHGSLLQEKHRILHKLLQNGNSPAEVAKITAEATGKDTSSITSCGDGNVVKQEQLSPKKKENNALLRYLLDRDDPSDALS
Description: The glutathione S-transferase (GST)-DRIP205 (amino acid 527-970) and GST-RAC3 RID (amino acid 613-752) fusion proteins were expressed in BL21 cells by induction with 0.1 mM isopropyl-β-D-thiogalactopyranoside (IPTG) at room temperature for 4 hours. The bacterial pellet was resuspended in STE buffer (150 mM NaCl, 10 mM Tris pH 8.0, 1 mM EDTA), containing 5 mM dithiothreitol (DTT), 1 mM phenylmethlsulfonyl fluoride (PMSF) and 1.5% Sarkosyl. The cell suspension was sonicated and centrifuged at 7400 rpm at 4° C. for 30 minutes. The supernatant was isolated and 0.02% Triton-X 100 was added, and the mixture was then incubated with 1 ml 50% slurry of glutathione-Sepharose beads on a rotator at 4° C. for 30 minutes. The beads were spun down at 3000 rpm for 10 minutes, the supernatant was removed, and the beads were suspended in 1 ml cold PBS.
Approximately 5 μg of GST-DRIP205 or GST-RAC3 bound on glutathione-Sepharose beads and 4 μl ^35S-methionine-labeled mPPARγ1 were incubated with the indicated concentrations of AJA, GW347845, or vehicle alone in H buffer (20 mM Hepes [pH 7.7], 75 mM KCl, 0.1 mM EDTA, 2.5 mM MgCl2, 0.05% NP40, 0.1 mM methionine, 1 mM DTT) containing 1 mg/ml bovine serum albumin (BSA) on a rotator at 4° C. overnight. After three washes with cold PBS, the bound protein was eluted in SDS sample buffer and boiled for 10 min before SDS-PAGE and autoradiography. […]

3T3 L1 fibroblasts = experiment: Adipocyte differentiation assay, Oil Red O staining; format: cell-based; conditions: 20 μM AJA, 10 days, 10 μg/ml insulin
Description: The adipocyte differentiation assay was performed as described by Mukherjee et. al. (Mol Endocrinol 14: 1425-33, 2000). The 3T3 L1 cells (American Type Culture Collection) were cultured in DMEM media supplemented with 10% calf serum. Two days after reaching confluence, cells were treated with AJA, GW347845, or vehicle (0.1% DMSO) in the presence of 10 μg/ml insulin every other day. After 10 days of treatment with AJA or 7 days with GW347845 at confluence, cells were fixed and stained with Oil Red O (Sigma). For RT-PCR, total cellular RNAs were isolated by TRIzol (Gibco). Reverse transcriptase polymerase chain reaction (RT-PCR) was performed using the superscript first-strand synthesis kit (Invitrogen). After first-strand cDNA was synthesized by use of oligo (dT), cDNA was amplified by PCR. […]
3T3 L1 fibroblasts cells were cultured in DMEM supplemented with 10% calf serum. […] The cells were treated for 10 days with AJA, or 7 days with GW347845, and lipid accumulation in cells was assessed by Oil Red O staining.

CB2 = CB2 (Homo sapiens, UniProt P34972); conditions: Recht et al. 2001; cited from earlier work
Sequence of CB2 (P34972 whole entry, species assumed): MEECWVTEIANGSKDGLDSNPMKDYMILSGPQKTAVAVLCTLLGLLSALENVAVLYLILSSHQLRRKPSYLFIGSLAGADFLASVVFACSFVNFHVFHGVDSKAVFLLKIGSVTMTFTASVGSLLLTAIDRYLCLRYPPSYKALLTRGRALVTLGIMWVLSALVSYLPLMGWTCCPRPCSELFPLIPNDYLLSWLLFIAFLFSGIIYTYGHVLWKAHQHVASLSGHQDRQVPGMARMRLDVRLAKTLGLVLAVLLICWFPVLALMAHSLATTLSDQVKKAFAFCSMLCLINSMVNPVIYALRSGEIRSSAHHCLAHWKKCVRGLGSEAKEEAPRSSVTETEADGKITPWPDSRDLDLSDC

CCCCCCC(C)(C)c1cc(O)c2c(c1)OC(C)(C)[C@@H]1CC=C(C(=O)O)C[C@@H]21 [AJA, dimethylheptyl-THC-11-oic acid]
binding of PPARγ to GST-RAC3 [1]: increased binding
lipid accumulation, Oil Red O staining (3T3 L1 fibroblasts): dramatic increase in lipid droplet staining
affinity to CB2 (CB2): modest affinity

— patent US20040186166A1, “Cannabinoid analogs as peroxisome proliferator activated nuclear receptor gamma activators” (priority 2002, published 2004)
